Assay results as given in ChEMBL document CHEMBL1201862, “PubChem BioAssay data set” (2004).
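Protocol summary: plate cells (96-well), add compound at 5 concentrations, incubate 48 h, interpolate endpoints linearly. GI50 is the concentration that inhibits growth by half.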 The source made the active and inactive calls. No stated cut-off is given here; in the data, active = GI50 up to about 1.1 µM and inactive = higher.

Key:
Assay in all cases: DTP human tumour cell line panel, 48 h
HL-60 = test system: HL-60
HT-29 = test system: HT-29
RXF 393 = test system: RXF 393
LOX IMVI = test system: LOX IMVI
SF-268 = test system: SF-268
SW-620 = test system: SW-620
MOLT-4 = test system: MOLT-4
CAKI-1 = test system: CAKI-1
SK-OV-3 = test system: SK-OV-3
SNB-19 = test system: SNB-19
HOP-18 = test system: HOP-18
SNB-75 = test system: SNB-75
NCI-H226 = test system: NCI-H226
OVCAR-3 = test system: OVCAR-3
SNB-78 = test system: SNB-78
U-251 = test system: U-251
M19-MEL = test system: M19-MEL
T47D = test system: T47D
MDA-N = test system: MDA-N
MDA-MB-231 = test system: MDA-MB-231

Compound	GI50 (HL-60)	GI50 (HT-29)	GI50 (RXF 393)	GI50 (LOX IMVI)	GI50 (SF-268)	GI50 (SW-620)	GI50 (MOLT-4)	GI50 (CAKI-1)	GI50 (SK-OV-3)	GI50 (SNB-19)	GI50 (HOP-18)	GI50 (SNB-75)	GI50 (NCI-H226)	GI50 (OVCAR-3)	GI50 (SNB-78)	GI50 (U-251)	GI50 (M19-MEL)	GI50 (T47D)	GI50 (MDA-N)	GI50 (MDA-MB-231)
O=C(O)c1cn2c3c(cc(N4CCN(CCO)CC4)cc3c1=O)SCC2	> 100 µM (inactive)	> 100 µM (inactive)	> 100 µM (inactive)	71.1 µM (inactive)	47.3 µM (inactive)	> 100 µM (inactive)	53.8 µM (inactive)	> 100 µM (inactive)	> 100 µM (inactive)	96.2 µM (inactive)	> 79.3 µM (inactive)	30.7 µM (inactive)	63.8 µM (inactive)	58.6 µM (inactive)	> 79.8 µM (inactive)	> 95.9 µM (inactive)	> 80.7 µM (inactive)	–	–	–
COc1ccc2c(-c3cc4ccccc4o3)cc(=O)oc2c1	> 100 µM (inactive)	> 78.2 µM (inactive)	18 µM (inactive)	60.7 µM (inactive)	25.3 µM (inactive)	> 100 µM (inactive)	> 100 µM (inactive)	40.6 µM (inactive)	23.1 µM (inactive)	26.1 µM (inactive)	48.6 µM (inactive)	8.17 µM (inactive)	58.5 µM (inactive)	16.6 µM (inactive)	35.2 µM (inactive)	24.3 µM (inactive)	> 100 µM (inactive)	> 55 µM (inactive)	> 76.6 µM (inactive)	47.8 µM (inactive)
CC[C@@]1(O)C[C@H](OC2CC(N(C)C)C(O)C(C)O2)c2c(cc3c(c2O)C(=O)c2c(O)ccc(O)c2C3=O)[C@H]1C(=O)OC (stereo partly specified)	0.0457 µM (active)	0.0388 µM (active)	0.0366 µM (active)	0.0229 µM (active)	0.0536 µM (active)	0.0267 µM (active)	0.0252 µM (active)	0.027 µM (active)	0.236 µM (active)	0.0991 µM (active)	0.212 µM (active)	0.0826 µM (active)	0.108 µM (active)	0.149 µM (active)	0.153 µM (active)	0.0405 µM (active)	0.0461 µM (active)	–	–	–
CCCCCCCCCCCCCCCCNCC(O)CN (stereo unspecified)	1.85 µM (inactive)	1.99 µM (inactive)	2.82 µM (inactive)	1.75 µM (inactive)	3.32 µM (inactive)	1.79 µM (inactive)	2.07 µM (inactive)	12.2 µM (inactive)	18.4 µM (inactive)	19.5 µM (inactive)	5.46 µM (inactive)	3.28 µM (inactive)	8.89 µM (inactive)	2.52 µM (inactive)	2.48 µM (inactive)	2.51 µM (inactive)	2.4 µM (inactive)	–	–	–
O=C(O)C1=C(CO)Oc2cc3c(cc2C1c1ccc2c(c1)OCO2)OCO3 (stereo unspecified)	> 100 µM (inactive)	> 100 µM (inactive)	> 100 µM (inactive)	> 100 µM (inactive)	–	> 100 µM (inactive)	> 100 µM (inactive)	> 100 µM (inactive)	> 100 µM (inactive)	> 100 µM (inactive)	> 100 µM (inactive)	> 100 µM (inactive)	–	> 100 µM (inactive)	> 100 µM (inactive)	> 100 µM (inactive)	> 100 µM (inactive)	–	–	–
CC(C)=CC1CC(=O)C1(C)Sc1ccccc1 (stereo unspecified)	22.8 µM (inactive)	27.4 µM (inactive)	26.2 µM (inactive)	17.3 µM (inactive)	51.3 µM (inactive)	–	34.4 µM (inactive)	54.7 µM (inactive)	> 100 µM (inactive)	67.8 µM (inactive)	> 100 µM (inactive)	65.2 µM (inactive)	34.4 µM (inactive)	52.4 µM (inactive)	60.1 µM (inactive)	67 µM (inactive)	27.5 µM (inactive)	–	–	–
COc1cc(O)c2c(c1)C(=O)c1cc3c(c(O)c1C2=O)C(OC1OC(C)C(O)C(O)C1OC)C(OC)C(C)(O)C3=O (stereo unspecified)	–	1.17 µM (inactive)	1.22 µM (inactive)	2 µM (inactive)	2.12 µM (inactive)	1.08 µM (active)	–	–	3.2 µM (inactive)	2.94 µM (inactive)	5.16 µM (inactive)	3.57 µM (inactive)	3.48 µM (inactive)	0.439 µM (active)	3.76 µM (inactive)	3.39 µM (inactive)	0.532 µM (active)	–	–	–
O=Cc1c(Cn2ccnc2)c2cc([N+](=O)[O-])ccc2n1Cc1ccccc1	–	> 100 µM (inactive)	> 100 µM (inactive)	> 100 µM (inactive)	> 92.7 µM (inactive)	> 100 µM (inactive)	> 100 µM (inactive)	> 68.4 µM (inactive)	> 100 µM (inactive)	49.3 µM (inactive)	> 25.8 µM (inactive)	> 100 µM (inactive)	> 100 µM (inactive)	> 100 µM (inactive)	> 72.4 µM (inactive)	37.3 µM (inactive)	> 69.2 µM (inactive)	–	–	–
CC[C@@]1(O)C(=O)OCc2c1cc1n(c2=O)Cc2cc3c(N)cccc3nc2-1 [9-AMINOCAMPTOTHECIN]	< 0.01 µM (active)	0.0632 µM (active)	0.0408 µM (active)	< 0.01 µM (active)	< 0.01 µM (active)	0.0321 µM (active)	< 0.01 µM (active)	< 0.01 µM (active)	0.0157 µM (active)	< 0.01 µM (active)	0.0277 µM (active)	< 0.0115 µM (active)	0.0102 µM (active)	0.207 µM (active)	0.574 µM (active)	0.0108 µM (active)	0.0198 µM (active)	–	0.229 µM (active)	0.272 µM (active)
